# Assay results published in patent US20120083013A1, “GLUCOSYLTRANSFERASE SPECIFIC TO POSITION-4 OF FUROFURAN-TYPE LIGNAN, AND POLYNUCLEOTIDE ENCODING SAME” (Suntory Holdings Limited, priority 2009, published 2012).
# How the values were obtained:
# RengUGT14 = test: glycosyl acceptor selectivity of recombinant RengUGT14 (standard enzyme reaction, HPLC analysis); format: biochemical, Forsythia koreana; settings: 1 mM UDP-glucose, 100 μM glycosyl acceptor substrate, pH 7.5, 30° C., one hour; for transglycosylation activity (activity against the lignan of structural formula (Ia) made 100): relative activity as glycosyl acceptor substrate
# Experimental: To clarify the biochemical functions of the enzymes, the two enzymes were expressed in Escherichia coli. Using the plasmid for two RengUGT Escherichia coli expression obtained above, Escherichia coli BL21 (DE3) strain was transformed in a conventional manner. The resulting transformants were shake cultured in 4 ml of LB medium (10 g/l tryptone peptone, 5 g/l yeast extract, 1 g/l NaCl) containing 50 μg/ml of ampicillin at 37° C. overnight. When the cells reached the stationary phase, 4 ml of the culture broth was inoculated onto 80 ml of fresh medium of the same composition, followed by shake culture at 37° C. At the point when the cell turbidity (OD 600) reached approximately 0.5, IPTG in a final concentration of 0.5 mM was added to the cells, followed by shake culture at 18° C. for 20 hours. The following procedures were all carried out at 4° C. The transformants cultured were collected by centrifugation (5,000×g, 10 mins.) and suspended by adding 1 ml/g cell of Buffer S (20 mM HEPES buffer (pH 7.5), 20 mM imidazole and 14 mM […]. Subsequently, the suspension was ultrasonicated (15 secs×8 times) and then centrifuged (15,000×g, 15 mins.). The supernatant obtained was recovered as a crude enzyme solution. The crude enzyme solution was loaded onto His SpinTrap (GE Healthcare), which had been equilibrated with Buffer S, and centrifuged (70×g, 30 secs.). After washing with the buffer, the proteins bound to the column were eluted stepwise with 5 ml each of Buffer S containing 100 mM and 500 mM imidazole. In each of the eluted fractions, the buffer was replaced through a Microcon YM-30 (Amicon) by 20 mM HEPES buffer (pH 7.5)/14 mM β-mercapto ethanol (magnification of dialysis, ×1000). As a result of the SDS-PAGE analysis, in the fraction eluted with […], the protein was confirmed at approximately 50 KDa of the estimated molecular weight for the two RengUGTs. This fraction was used for the enzyme analysis (FIG. 2). Conditions for the standard enzyme reaction are as follows. […] Based on the analysis that the spectra from 220 nm to 330 nm were measured using SPD-10AV (Shimadzu Corp.), search was made for substances having two absorption maxima (230 nm and 280 nm) inherent to lignans. Under the conditions, the lignan of structural formula (Ia) was detected at approximately 11.6 minutes, the lignan of structural formula (Ib) at approximately 12.2 minutes, the lignan of structural formula (Ic) at approximately 13.8 minutes, and the lignan of structural formula (V) at approximately 9.8 minutes. The expression level of RengUGT14 recombinant protein was high in Escherichia coli (FIG. 2), and the glycosyl acceptor selectivity was evaluated using this enzyme. […]
# RengUGT13 = test: glucosyltransferase reaction of recombinant RengUGT13 with lignan (HPLC, LC-MS of the product); format: biochemical, Forsythia koreana; settings: 1 mM UDP-glucose, 100 μM glycosyl acceptor substrate, pH 7.5, 30° C., one hour
# Experimental: To clarify the biochemical functions of the enzymes, the two enzymes were expressed in Escherichia coli. Using the plasmid for two RengUGT Escherichia coli expression obtained above, Escherichia coli BL21 (DE3) strain was transformed in a conventional manner. The resulting transformants were shake cultured in 4 ml of LB medium (10 g/l tryptone peptone, 5 g/l yeast extract, 1 g/l NaCl) containing 50 μg/ml of ampicillin at 37° C. overnight. When the cells reached the stationary phase, 4 ml of the culture broth was inoculated onto 80 ml of fresh medium of the same composition, followed by shake culture at 37° C. […]
# Lc-2010c (Shimadzu Corp.) was used for LC; eluent A: 0.1% TFA and eluent B: 0.1% TFA/90% acetonitrile as the moving phase; Develosil-C30-UG5 (Nomura Chemical, 4.6 mm×150 mm) as the column at 40° C. […] Based on the analysis that the spectra from 220 nm to 330 nm were measured using SPD-10AV (Shimadzu Corp.), search was made for substances having two absorption maxima (230 nm and 280 nm) inherent to lignans. Under the conditions, the lignan of structural formula (Ia) was detected at approximately 11.6 minutes, the lignan of structural formula (Ib) at approximately 12.2 minutes, the lignan of structural formula (Ic) at approximately 13.8 minutes, and the lignan of structural formula (V) at approximately 9.8 minutes. […]
transglycosylation activity (activity against the lignan of structural formula (Ia) made 100) (RengUGT14),Structure (SMILES),"glucose transfer to the lignan by RengUGT14 (product peak at HPLC, monoglucoside by LC-MS) (RengUGT14)","glucose transfer to the lignan by RengUGT13 (product peak at HPLC, monoglucoside by LC-MS) (RengUGT13)"
100,COc1cc([C@H]2OC[C@H]3[C@@H]2CO[C@@H]3c2ccc(O)c(OC)c2)ccc1O [structural formula (Ia)],activity of transferring one molecule of glucose,activity of transferring one molecule of glucose
112,COc1cc([C@H]2OC[C@H]3[C@@H]2CO[C@H]3c2ccc(O)c(OC)c2)ccc1O [structural formula (Ib)],–,–
128,COc1cc([C@H]2OC[C@H]3[C@@H]2CO[C@H]3c2ccc(OC)c(OC)c2)ccc1O [structural formula (Ic)],–,–
